Tests used:
[1] = molecular target: Serine/threonine-protein kinase MARK1 (Homo sapiens) (UniProt Q9P0L2); assay: Inhibition of MARK1 (unknown origin) assessed as residual activity at 1000 nM by KINOMEscan analysis relative to control
[2] = molecular target: T1, Dual serine/threonine and tyrosine protein kinase (Homo sapiens) (UniProt Q6XUX3); assay: Inhibition of RIPK5 (unknown origin) assessed as residual activity at 1000 nM by KINOMEscan analysis relative to control
T1 sequence (whole entry): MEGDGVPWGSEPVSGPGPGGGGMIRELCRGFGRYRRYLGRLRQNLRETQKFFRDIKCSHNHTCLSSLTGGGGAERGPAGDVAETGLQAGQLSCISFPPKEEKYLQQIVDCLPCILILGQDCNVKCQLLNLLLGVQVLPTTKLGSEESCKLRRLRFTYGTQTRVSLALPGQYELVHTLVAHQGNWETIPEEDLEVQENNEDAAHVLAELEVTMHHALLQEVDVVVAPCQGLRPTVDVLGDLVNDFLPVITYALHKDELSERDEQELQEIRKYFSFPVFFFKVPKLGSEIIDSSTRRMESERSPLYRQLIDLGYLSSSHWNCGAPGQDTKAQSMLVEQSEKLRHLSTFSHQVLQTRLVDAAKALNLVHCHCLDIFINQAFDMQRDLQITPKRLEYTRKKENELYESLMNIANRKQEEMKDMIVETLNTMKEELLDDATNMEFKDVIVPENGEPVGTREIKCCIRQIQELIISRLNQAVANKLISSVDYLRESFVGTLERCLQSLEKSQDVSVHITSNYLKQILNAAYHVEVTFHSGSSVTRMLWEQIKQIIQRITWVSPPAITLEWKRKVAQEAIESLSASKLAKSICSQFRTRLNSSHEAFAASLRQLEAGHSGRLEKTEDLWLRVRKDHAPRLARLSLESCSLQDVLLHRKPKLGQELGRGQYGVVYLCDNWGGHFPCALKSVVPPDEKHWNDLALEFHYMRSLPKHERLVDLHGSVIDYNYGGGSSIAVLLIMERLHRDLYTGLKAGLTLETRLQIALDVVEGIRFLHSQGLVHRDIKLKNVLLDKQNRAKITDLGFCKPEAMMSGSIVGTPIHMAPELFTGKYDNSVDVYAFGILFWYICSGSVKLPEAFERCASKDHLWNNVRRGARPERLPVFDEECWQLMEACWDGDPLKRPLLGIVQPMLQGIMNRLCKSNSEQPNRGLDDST

[3] = system: Epidermal growth factor receptor (Homo sapiens), P00533 [UNDEFINED MUTATION]; assay: Inhibition of EGFR L747-E749del/A750P mutant (unknown origin) assessed as residual activity at 1000 nM by KINOMEscan analysis relative to control
Sequence of Epidermal growth factor receptor (Homo sapiens), P00533 [UNDEFINED MUTATION] (P00533 whole entry, looked up, stated change not applied): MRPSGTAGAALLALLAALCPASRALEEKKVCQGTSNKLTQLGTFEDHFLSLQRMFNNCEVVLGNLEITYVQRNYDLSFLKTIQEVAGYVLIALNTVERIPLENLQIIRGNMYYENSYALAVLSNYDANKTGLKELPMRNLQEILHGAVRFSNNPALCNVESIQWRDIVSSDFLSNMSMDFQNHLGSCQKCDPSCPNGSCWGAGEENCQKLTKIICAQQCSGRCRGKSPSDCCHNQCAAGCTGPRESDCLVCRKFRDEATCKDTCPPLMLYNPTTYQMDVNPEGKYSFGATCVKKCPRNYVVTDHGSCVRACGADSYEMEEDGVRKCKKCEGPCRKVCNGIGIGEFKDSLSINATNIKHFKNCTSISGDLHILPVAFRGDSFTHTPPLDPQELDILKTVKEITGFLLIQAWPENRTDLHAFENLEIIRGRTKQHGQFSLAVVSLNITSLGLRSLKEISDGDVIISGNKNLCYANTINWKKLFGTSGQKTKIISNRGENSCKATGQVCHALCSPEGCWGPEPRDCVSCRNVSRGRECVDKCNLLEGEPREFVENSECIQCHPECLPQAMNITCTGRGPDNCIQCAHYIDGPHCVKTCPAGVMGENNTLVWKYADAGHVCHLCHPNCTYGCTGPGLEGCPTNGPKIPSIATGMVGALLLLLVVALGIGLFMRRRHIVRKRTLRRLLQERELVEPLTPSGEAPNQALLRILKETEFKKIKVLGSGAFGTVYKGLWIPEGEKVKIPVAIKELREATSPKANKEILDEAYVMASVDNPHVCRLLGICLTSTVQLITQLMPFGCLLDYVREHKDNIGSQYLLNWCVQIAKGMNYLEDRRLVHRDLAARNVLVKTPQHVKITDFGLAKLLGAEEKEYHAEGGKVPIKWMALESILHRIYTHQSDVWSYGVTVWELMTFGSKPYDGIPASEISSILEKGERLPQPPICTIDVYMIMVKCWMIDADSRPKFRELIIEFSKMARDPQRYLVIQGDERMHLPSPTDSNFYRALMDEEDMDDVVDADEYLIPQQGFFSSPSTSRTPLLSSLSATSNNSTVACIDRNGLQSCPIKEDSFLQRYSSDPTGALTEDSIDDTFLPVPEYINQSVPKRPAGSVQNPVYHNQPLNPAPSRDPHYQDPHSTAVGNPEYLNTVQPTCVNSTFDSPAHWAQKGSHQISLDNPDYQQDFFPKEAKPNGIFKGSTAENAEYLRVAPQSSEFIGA

[4] = molecular target: Calcium-dependent protein kinase 1 (Plasmodium falciparum) (UniProt P62344); assay: Inhibition of Plasmodium falciparum CDPK1 assessed as residual activity at 1000 nM by KINOMEscan analysis relative to control
Sequence of Calcium-dependent protein kinase 1 (Plasmodium falciparum) (P62344 2-524 limits assumed): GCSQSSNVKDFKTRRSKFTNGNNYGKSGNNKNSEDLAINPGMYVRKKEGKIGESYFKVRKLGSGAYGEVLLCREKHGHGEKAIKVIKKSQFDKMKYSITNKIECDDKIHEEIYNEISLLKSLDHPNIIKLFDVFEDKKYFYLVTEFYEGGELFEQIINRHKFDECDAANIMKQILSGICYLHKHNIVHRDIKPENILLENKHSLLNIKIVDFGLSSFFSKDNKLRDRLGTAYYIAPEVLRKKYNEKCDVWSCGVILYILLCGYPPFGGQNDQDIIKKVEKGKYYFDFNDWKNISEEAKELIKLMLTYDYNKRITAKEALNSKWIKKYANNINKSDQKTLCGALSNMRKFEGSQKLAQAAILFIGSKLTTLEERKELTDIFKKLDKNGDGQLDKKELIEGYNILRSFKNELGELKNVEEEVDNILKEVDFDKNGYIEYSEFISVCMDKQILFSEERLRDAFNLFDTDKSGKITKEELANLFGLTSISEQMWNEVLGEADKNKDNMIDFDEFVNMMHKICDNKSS

[5] = molecular target: Ribosomal protein S6 kinase alpha-3 (Homo sapiens) (UniProt P51812); assay: Inhibition of N-terminal RSK2 kinetic domain 1 (unknown origin) assessed as residual activity at 1000 nM by KINOMEscan analysis relative to control
Sequence of Ribosomal protein S6 kinase alpha-3 (Homo sapiens) (P51812 whole entry, the tested form may be a part): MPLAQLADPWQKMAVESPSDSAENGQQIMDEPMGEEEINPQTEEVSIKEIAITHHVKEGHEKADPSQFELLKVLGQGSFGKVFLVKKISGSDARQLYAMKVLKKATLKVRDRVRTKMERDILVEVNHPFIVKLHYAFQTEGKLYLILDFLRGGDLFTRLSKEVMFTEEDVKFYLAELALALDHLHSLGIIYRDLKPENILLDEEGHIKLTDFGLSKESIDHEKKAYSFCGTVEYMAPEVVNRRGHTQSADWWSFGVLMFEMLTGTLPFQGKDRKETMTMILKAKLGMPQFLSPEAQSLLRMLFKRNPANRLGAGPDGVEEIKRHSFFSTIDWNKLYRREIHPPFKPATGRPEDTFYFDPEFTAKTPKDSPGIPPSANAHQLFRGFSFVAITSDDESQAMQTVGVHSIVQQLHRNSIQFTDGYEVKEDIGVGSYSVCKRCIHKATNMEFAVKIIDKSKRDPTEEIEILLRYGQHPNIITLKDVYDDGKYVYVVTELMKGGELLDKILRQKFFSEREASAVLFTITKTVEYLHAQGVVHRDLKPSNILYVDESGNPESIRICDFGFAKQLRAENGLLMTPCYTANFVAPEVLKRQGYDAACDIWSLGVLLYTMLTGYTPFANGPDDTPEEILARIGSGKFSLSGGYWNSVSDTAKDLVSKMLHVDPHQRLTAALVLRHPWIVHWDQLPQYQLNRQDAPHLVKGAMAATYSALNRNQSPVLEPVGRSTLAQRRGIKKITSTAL

[6] = molecular target: Cyclin-dependent kinase 13 (Homo sapiens) (UniProt Q14004); assay: Inhibition of CDC2L5 (unknown origin) assessed as residual activity at 1000 nM by KINOMEscan analysis relative to control
Sequence of Cyclin-dependent kinase 13 (Homo sapiens) (Q14004 whole entry, looked up): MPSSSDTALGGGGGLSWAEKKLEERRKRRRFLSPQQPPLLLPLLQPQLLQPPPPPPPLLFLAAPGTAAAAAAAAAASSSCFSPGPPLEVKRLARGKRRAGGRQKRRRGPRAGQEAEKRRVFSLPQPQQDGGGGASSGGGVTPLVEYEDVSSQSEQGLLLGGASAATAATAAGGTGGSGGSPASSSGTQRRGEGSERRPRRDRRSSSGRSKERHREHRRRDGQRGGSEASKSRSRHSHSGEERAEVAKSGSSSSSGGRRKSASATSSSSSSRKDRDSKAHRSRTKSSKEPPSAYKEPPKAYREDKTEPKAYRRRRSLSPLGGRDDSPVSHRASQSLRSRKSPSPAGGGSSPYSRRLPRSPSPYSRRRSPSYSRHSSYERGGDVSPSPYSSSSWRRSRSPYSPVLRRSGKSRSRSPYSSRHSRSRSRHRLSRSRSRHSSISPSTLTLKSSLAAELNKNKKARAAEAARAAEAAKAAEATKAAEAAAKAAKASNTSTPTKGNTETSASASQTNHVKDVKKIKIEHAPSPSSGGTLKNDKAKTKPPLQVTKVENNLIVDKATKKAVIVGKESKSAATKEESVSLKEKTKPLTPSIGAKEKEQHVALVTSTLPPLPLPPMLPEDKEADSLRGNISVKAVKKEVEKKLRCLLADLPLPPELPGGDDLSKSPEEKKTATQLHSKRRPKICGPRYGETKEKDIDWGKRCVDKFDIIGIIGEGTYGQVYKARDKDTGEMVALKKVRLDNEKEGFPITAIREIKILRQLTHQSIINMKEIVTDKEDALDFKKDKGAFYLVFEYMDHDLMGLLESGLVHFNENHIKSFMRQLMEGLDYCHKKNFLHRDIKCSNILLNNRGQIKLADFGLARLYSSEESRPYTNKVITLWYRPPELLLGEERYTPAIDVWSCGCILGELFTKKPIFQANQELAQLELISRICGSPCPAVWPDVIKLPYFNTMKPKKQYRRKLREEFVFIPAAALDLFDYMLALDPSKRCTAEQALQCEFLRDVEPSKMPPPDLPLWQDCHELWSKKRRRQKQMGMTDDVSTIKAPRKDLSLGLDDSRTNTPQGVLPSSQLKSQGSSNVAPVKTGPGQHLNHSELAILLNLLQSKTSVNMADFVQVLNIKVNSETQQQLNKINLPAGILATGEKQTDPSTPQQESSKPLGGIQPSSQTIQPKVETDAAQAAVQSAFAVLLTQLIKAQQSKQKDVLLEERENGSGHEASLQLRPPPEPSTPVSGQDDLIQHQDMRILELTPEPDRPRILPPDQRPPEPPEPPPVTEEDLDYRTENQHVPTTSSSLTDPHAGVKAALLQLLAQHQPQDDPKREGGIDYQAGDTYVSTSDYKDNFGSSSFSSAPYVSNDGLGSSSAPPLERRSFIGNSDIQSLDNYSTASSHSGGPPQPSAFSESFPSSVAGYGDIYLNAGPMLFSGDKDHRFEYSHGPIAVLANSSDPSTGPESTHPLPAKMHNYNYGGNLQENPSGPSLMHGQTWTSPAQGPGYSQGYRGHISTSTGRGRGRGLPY

[7] = molecular target: T2, Serine/threonine-protein kinase Nek11 (Homo sapiens) (UniProt Q8NG66); assay: Inhibition of NEK11 (unknown origin) assessed as residual activity at 1000 nM by KINOMEscan analysis relative to control
T2 sequence (whole entry): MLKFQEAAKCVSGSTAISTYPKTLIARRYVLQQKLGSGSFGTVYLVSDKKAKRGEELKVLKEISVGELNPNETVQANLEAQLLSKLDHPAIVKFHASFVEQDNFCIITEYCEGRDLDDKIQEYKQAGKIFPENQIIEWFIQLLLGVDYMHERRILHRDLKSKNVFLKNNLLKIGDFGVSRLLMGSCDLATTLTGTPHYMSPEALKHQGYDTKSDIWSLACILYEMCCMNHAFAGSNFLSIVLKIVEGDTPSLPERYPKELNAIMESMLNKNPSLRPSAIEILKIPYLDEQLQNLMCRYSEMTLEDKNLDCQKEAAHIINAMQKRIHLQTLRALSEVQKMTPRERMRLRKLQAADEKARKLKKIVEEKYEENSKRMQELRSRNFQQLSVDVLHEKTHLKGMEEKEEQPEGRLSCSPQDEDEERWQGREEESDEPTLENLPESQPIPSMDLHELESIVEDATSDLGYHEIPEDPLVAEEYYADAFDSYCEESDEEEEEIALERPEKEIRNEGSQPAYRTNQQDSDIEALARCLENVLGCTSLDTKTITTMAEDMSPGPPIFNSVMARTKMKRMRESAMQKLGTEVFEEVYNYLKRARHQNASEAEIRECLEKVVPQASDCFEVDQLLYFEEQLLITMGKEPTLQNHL

[8] = molecular target: Tyrosine-protein kinase ABL1 (Homo sapiens) (UniProt P00519); assay: Inhibition of nonphosphorylated ABL1 (unknown origin) assessed as residual activity at 1000 nM by KINOMEscan analysis relative to control
Sequence of Tyrosine-protein kinase ABL1 (Homo sapiens) (P00519 whole entry): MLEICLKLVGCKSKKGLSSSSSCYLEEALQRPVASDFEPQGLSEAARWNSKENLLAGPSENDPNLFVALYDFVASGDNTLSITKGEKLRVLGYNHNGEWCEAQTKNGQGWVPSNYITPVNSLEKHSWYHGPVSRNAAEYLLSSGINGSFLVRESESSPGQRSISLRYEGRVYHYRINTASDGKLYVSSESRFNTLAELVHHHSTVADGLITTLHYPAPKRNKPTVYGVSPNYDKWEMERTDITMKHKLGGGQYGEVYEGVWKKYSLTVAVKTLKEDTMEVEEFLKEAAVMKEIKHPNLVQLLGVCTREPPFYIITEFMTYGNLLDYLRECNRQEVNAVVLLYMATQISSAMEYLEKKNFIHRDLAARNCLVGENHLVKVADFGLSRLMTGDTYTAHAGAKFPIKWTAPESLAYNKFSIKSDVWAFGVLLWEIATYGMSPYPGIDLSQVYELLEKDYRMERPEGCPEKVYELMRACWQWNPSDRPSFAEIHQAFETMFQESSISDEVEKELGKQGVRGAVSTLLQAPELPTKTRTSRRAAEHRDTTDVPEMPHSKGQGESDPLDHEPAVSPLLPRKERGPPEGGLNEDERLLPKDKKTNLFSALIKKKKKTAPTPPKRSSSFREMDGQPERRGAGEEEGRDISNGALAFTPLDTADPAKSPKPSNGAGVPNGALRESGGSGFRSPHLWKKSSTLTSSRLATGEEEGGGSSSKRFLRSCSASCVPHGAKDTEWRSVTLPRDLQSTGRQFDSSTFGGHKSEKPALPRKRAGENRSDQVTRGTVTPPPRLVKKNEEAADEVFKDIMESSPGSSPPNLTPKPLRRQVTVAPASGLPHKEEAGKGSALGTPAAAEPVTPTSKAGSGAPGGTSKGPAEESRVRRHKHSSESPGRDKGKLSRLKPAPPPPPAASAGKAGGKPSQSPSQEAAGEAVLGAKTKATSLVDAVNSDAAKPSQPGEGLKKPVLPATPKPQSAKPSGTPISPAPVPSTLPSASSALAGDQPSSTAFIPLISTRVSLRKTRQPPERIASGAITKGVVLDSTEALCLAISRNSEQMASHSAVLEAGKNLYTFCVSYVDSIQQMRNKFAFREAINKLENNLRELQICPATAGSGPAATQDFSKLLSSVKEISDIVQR

[9] = molecular target: T3, Myotonin-protein kinase (Homo sapiens) (UniProt Q09013); assay: Inhibition of DMPK (unknown origin) assessed as residual activity at 1000 nM by KINOMEscan analysis relative to control
T3 sequence (whole entry): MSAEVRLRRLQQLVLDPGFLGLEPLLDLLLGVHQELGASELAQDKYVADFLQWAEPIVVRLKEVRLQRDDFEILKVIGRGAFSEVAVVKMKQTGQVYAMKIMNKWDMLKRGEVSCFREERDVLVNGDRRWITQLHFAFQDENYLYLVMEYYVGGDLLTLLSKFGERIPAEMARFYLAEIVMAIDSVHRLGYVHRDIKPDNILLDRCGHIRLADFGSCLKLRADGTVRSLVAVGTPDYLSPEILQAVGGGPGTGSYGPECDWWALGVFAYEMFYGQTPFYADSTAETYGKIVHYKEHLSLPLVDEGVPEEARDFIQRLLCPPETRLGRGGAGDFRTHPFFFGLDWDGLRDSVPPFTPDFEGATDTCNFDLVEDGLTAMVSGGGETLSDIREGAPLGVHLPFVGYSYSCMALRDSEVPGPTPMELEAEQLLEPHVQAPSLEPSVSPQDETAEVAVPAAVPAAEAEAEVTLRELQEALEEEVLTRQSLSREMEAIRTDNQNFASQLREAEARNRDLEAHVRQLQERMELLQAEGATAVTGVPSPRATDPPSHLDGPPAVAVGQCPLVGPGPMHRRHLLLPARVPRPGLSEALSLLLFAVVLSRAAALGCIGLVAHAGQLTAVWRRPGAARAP

Compound	Activity [1] [%]	Activity [2] [%]	Activity [3] [%]	Activity [4] [%]	Activity [5] [%]	Activity [6] [%]	Activity [7] [%]	Activity [8] [%]	Activity [9] [%]
COc1cc2nc(C)nc(N[C@H](C)c3cccc(-c4cn[nH]c4)c3)c2cc1OC	100	77	99	81	60	87	93	54	87
COc1cc2ncnc(N[C@H](C)c3cccc4ccccc34)c2cc1OC	73	86	3.2	62	95	97	81	100	100

Reference: ChEMBL document CHEMBL5678818, “Discovery of potent SOS1 inhibitors that block RAS activation via disruption of the RAS-SOS1 interaction” (Proc Natl Acad Sci U S A, 2019)
